Publication PMC10005967, “Discriminative binding of tau PET tracers PI2620, MK6240 and RO948 in Alzheimer’s disease, corticobasal degeneration and progressive supranuclear palsy brains” (Molecular Psychiatry, 2022)
“And” between values parts separate entries of the source, which are not always exact repeats. Equal values may be shown once. Read-outs that look alike come from different tables or passages of the source.

Legend:
[1] = test system: tau, AD brain homogenates; conditions: cited from earlier work; for high-affinity (HA) binding site: AD brain homogenates
[2] = target: tau, AD FC brain homogenates (Homo sapiens, UniProt P10636); assay: ^3H-PI2620 competitive binding assay in AD frontal cortex brain homogenates; conditions: for proportion of HA binding sites / proportion of SHA binding sites: vs 0.6 nM ^3H-PI2620; for IC50: vs 0.6 nM ^3H-PI2620, 2-site competition model
tau, AD FC brain homogenates, sequence (P10636 623-708 limits assumed): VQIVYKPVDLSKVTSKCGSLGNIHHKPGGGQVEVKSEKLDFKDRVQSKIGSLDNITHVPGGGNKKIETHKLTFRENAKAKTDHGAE
Experimental: (§1) Frozen human brain tissue from eleven AD, five CBD, four PSP and eight control patients was provided by the Netherlands Brain Bank (Amsterdam, Netherlands). Frozen human brain tissue from PSP case number 26 was provided by Professor Bernadino Ghetti, the Neuropathology of Dementia Laboratory, Indiana University School of Medicine (Indianapolis, IN, USA) (see Table 1 for demographic data). Brain homogenates were prepared by homogenising the brain tissue in phosphate buffer saline (PBS; pH 7.4) containing 0.1% BSA (250 mg tissue/mL) and protease/phosphatase inhibitors (10 μL/mL); aliquots were stored at −80 °C until used in the binding experiments.
Competitive binding assays on four AD FC brain homogenates [two early-onset (EO) AD and two late-onset (LO) AD; 0.5 mg tissue] were performed using 0.6 nM of ^3H-PI2620 and increasing concentrations (1 × 10^−18 M to 1 × 10^−6 M) of unlabelled PI2620, unlabelled MK6240 and unlabelled RO948 for 2 h at RT. The binding assay was accomplished as described above. The half-maximal inhibitory concentration (IC50) was measured using the 2-site competition model in GraphPad Prism 9 software.

tau, CBD FC homogenates = tau, CBD FC homogenates (Homo sapiens, UniProt P10636); assay: ^3H-PI2620 competitive binding assay in CBD frontal cortex brain homogenates
tau, CBD FC homogenates, sequence (P10636 561-697 limits assumed): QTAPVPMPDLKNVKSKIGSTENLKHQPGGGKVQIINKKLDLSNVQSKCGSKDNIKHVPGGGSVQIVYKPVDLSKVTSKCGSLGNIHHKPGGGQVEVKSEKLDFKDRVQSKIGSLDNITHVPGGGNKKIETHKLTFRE
Experimental: as §1
(§2) Competitive binding assays were also carried out under the same conditions, on three PSP FC homogenates and three CBD FC homogenates using 0.6 nM and 1 nM of ^3H-PI2620, respectively, in the presence of increasing concentrations of unlabelled PI2620 (1 × 10^−18 M to 1 × 10^−6 M). The 2-site competition model in GraphPad Prism 9 software was used to plot the AD, CBD, and PSP data.

tau, PSP FC homogenates = tau, PSP FC homogenates (Homo sapiens, UniProt P10636); assay: ^3H-PI2620 competitive binding assay in PSP frontal cortex brain homogenates; conditions: vs 0.6 nM ^3H-PI2620, only one binding site
tau, PSP FC homogenates, sequence (P10636 561-698 limits assumed): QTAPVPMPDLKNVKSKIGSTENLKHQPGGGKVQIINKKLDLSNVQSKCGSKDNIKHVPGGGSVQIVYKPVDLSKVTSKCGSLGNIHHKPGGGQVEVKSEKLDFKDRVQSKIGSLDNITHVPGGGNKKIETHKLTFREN
Experimental: as §1, §2

[3] = test system: tau, post-mortem PSP brain tissue; conditions: cited from earlier work
[4] = read-out: IC50(1), super-high affinity (SHA) site
[5] = read-out: IC50(2), high affinity (HA) site

proportion of HA binding sites [2] | proportion of SHA binding sites [2] | IC50 [2, 4] | IC50 [2, 5] | proportion of HA binding sites (tau, CBD FC homogenates; vs 1 nM ^3H-PI2620) | proportion of SHA binding sites (tau, CBD FC homogenates; vs 1 nM ^3H-PI2620) | IC50 (tau, CBD FC homogenates; vs 1 nM ^3H-PI2620, read-out: IC50(1), SHA site) | IC50 (tau, CBD FC homogenates; vs 1 nM ^3H-PI2620, read-out: IC50(2), HA site) | IC50 (tau, PSP FC homogenates) | SMILES | high-affinity (HA) binding site [1] | HA site ([1]; AD hippocampus, ^3H-MK6240) | super-high affinity (SHA) site ([1]; AD hippocampus, ^3H-MK6240) | proportion of HA site ([1]; AD hippocampus) | proportion of SHA site ([1]; AD hippocampus) | in vitro binding using autoradiography [3]
> 70% and 76% | > 20% and 24% | 0.0027 nM | 4.5 nM |  |  |  |  |  | Nc1c(F)ccc2cnc(-n3ccc4ccncc43)cc12 [MK6240] | 0.15 to 0.32 nM | 12 nM | 1 pM | 42% | 58% | 
> 70% and 77% | > 20% and 23% | 0.0081 nM | 4.9 nM | 54% | 46% | 0.0056 nM | 7.7 nM | 2.5 nM | Fc1cc(-c2ccc3c(n2)[nH]c2ccncc23)ccn1 [PI2620] | 8.5 nM |  |  |  |  | 
> 70% and 79% | > 20% and 21% | 0.0058 nM | 6.8 nM |  |  |  |  |  | Fc1ccc(-c2ccc3c(n2)[nH]c2cnccc23)cn1 [RO948] | 18 nM |  |  |  |  | 
 |  |  |  |  |  |  |  |  | Fc1ccc(-c2ccc3c(c2)[nH]c2ccncc23)cn1 [^18F-AV-1451] |  |  |  |  |  | no in vitro binding
